From patent US20220117938A1, “COMBINATON THERAPY WITH A DON PRODRUG AND AN IMMUNE CHECKPOINT INHIBITOR” (DRACEN PHARMACEUTICALS, INC., priority 2019, published 2022)

Test system: Ninety four (94) cell lines and PBMC
Assay: Cell viability assay, SRB staining, 94 cell lines and PBMC (Example 7, Experiment 2)
Type: cell-based
Procedure: Ninety four (94) cell lines were seeded at a density varying from 500 to 7000 cells/well depending on their growth characteristics. PBMC were seeded at the density 50,000-100,000 cells/well. Cells were incubated for 48 h prior to compound treatment. Compound 1 and DON were evaluated at a concertation range of 1 nM up to 100 μM. Compound 1 dilutions in DMSO and DON dilutions in PBS were performed in 96-well 0.5 mL plates (Greiner Bio-One, Germany). Compounds were then diluted 1:100 in RPMI medium. […] of cells were treated by mixing with 10 μL of the compound-containing media (resulting in a final DMSO concentration of 0.1%). The cells were allowed to grow at 37° C. for 120 h. Cells were fixed to the surface by addition of 10% TCA (for adherent growing cells) or 50% TCA (for semi-adherent growing cells or cells growing in suspension). After an hour of incubation at 4° C., plates were washed twice with 400 μL of deionized water and dried. Cells were then stained with 100 μL of 0.04% wt/v SRB. The plates were incubated at room temperature for at least 30 min and washed six times with 1% acetic acid to remove unbound stain. The plates were left to dry at room temperature and bound SRB was solubilized with 100 μL of 10 mM Tris base. Optical density was measured at 492, 520 and 560 nm using a Deelux-LED96 plate reader (Deelux Labortechnik GmbH, Germany).
Cell lines were purchased directly from the ATCC, NCI, CLS, and DSMZ cell line collections. A master bank and working aliquots were prepared. Cells used for the study had undergone less than 20 passages. To rule out potential contamination or wrong assignment, all cell lines were tested by STR analysis. Absence of mycoplasma contamination was confirmed for all cell lines used in the studies.
The cell lines were grown in the media recommended by the suppliers in the presence of 100 U/mL penicillin and 100 μg/mL streptomycin supplied with 10% FCS (PAA, Germany). RPMI 1640, DMEM, and MEM Earle's medium were from PAA (Coelbe, Germany), supplements 2 mM L-glutamine, 1 mM Na-pyruvate and 1% NEAA were from PAA (Coelbe, Germany), 2.5% horse serum, hydrocortisone, transferin, beta-estradiol, selenite and 1 U/mL insulin from Sigma-Aldrich (Munich, Germany). RPMI medium was used for culturing the following cell lines: 5637, 22RV1, 7860, A2780, A431, A549, ACHN, ASPC1, BT20, BXPC3, CAKI1, CLS439, COLO205, COLO678, DLD1, DU145, EFO21, EJ28, HCT15, HS578T, IGROV1, JAR, LOVO, MCF7, MDA MB231, MDA MB435, MDA MB436, MDA MB468, MHHES1, MT3, NCI H292, NCI H358M, NCI H460, NCIH82, OVCAR3, OVCAR4, PANC 1005 (addition of insulin), PBMC, PC3, RDES, SF268, SF295, SKBR3, SK MEL28, SKMEL5, SKOV3, SW620, U2OS, UMUC3, and U031.
DMEM medium was used to culture A204, A375, A673, C33A, CASKI, HCT116, HEPG2, HS729, HT29, J82, MG63, MIAPACA2 (addition of horse serum), PANC1, PLCPRF5, RD, SAOS2, SKLMS1, SKNAS, SNB75, T24, and TE671.
MEM Earle's medium was used for CACO2, CALU6, HEK293, HELA, HT1080, IMR90, JEG3, JIMT1, SKHEP1, SKNSH, and U87MG. Cell seeding conditions were optimized for each cell line. The cell seeding density varied from 500 to 7000 cells/well depending on their growth characteristics. Peripheral blood mononuclear cells (PBMC) were freshly isolated from whole blood of an anonymous donor through density gradient centrifugation using Ficoll solution (d=1.077). In short, blood was diluted 1:1 with PBS and carefully placed on the Ficoll. After centrifugation 1000×g for 15 min (braking rate 0), the ring containing mainly leucocytes was collected in PBS followed by three times washing with PBS to reduce the platelets. PBMC were seeded at the density 50,000-100,000 cells/well. Cells were grown in 5% CO2 atmosphere in a NB-203XXL incubator (N-BIOTEK Inc., Korea).
Ninety-four cell lines were tested in parallel. Cell growth and treatment were performed in 96 well microtitre plates CELLSTAR® (Greiner Bio-One, Germany). […]

[1] = Homo sapiens, MDA-MB-468, MDAMB468, breast
[2] = Homo sapiens, MG-63, MG63, bone
[3] = Homo sapiens, MHH-ES-1, MHHES1, bone
[4] = Homo sapiens, MIA PaCa-2, MIAPACA2, pancreas
[5] = Homo sapiens, MINO, hematological
[6] = Homo sapiens, MV4-11, MV4-11, hematological
[7] = Homo sapiens, NCI-H292, NCIH292, lung
[8] = Homo sapiens, NCI-H460, NCIH460, lung
[9] = Homo sapiens, OVCAR-3, OVCAR3, ovary
[10] = Homo sapiens, OVCAR-4, OVCAR4, ovary
[11] = Homo sapiens, PANC-1, PANC1, pancreas
[12] = Homo sapiens, PLC-PRF-5, PLCPRF5, liver
[13] = Homo sapiens, Panc1005, PANC1005, pancreas
[14] = Homo sapiens, SAOS-2, SAOS2, bone
[15] = Homo sapiens, SF-268, SF268, brain
[16] = Homo sapiens, SF-295, SF295, brain
[17] = Homo sapiens, SK-BR-3, SKBR3, breast
[18] = Homo sapiens, SK-HEP1, SKHEP1, liver
[19] = Homo sapiens, SK-LMS-1, SKLMS1, uterus
[20] = Homo sapiens, SK-MEL-5, SKMEL5, skin
[21] = Homo sapiens, SK-MEL-28, SKMEL28, skin
[22] = Homo sapiens, SK-N-SH, SKNSH, brain
[23] = Homo sapiens, SK-OV-3, SKOV3, ovary
[24] = Homo sapiens, SU-DHL-6, SU-DHL-6, hematological
[25] = Homo sapiens, SW-620, SW620, colon
[26] = Homo sapiens, TE-671, TE671, muscle
[27] = Homo sapiens, THP-1, THP-1, hematological
[28] = Homo sapiens, U-87 MG, U87MG, brain
[29] = Homo sapiens, UMUC3, UMUC3, bladder
[30] = Homo sapiens, UO-31, UO31, kidney
[31] = Homo sapiens, WSU-NHL, hematological

[N-]=[N+]=CC(=O)CC[C@H](N)C(=O)O [DON, 6-Diazo-5-oxo-L-norleucine, reference compound]
IC50 (Homo sapiens, MDA-MB-436, MDAMB436, breast): 19.8 µM | GI50 [1]: 0.427 µM | IC50 [1]: 0.599 µM | GI50 [2]: 4.61 µM | IC50 [2]: 5.3 µM | GI50 [3]: 1.85 µM | IC50 [3]: 2 µM | GI50 [4]: 3.32 µM | IC50 [4]: 3.58 µM | GI50 [5]: 0.497 µM | IC50 [5]: 0.633 µM | GI50 [6]: 1.22 µM | IC50 [6]: 1.4 µM | GI50 [7]: 5.72 µM | IC50 [7]: 53.1 µM | GI50 [8]: 4.11 µM | IC50 [8]: 4.31 µM | GI50 [9]: 0.889 µM | IC50 [9]: 2.3 µM | GI50 [10]: 0.651 µM | IC50 [10]: 0.752 µM | GI50 [11]: 12.3 µM | IC50 [11]: 13.2 µM | GI50 [12]: 6.53 µM | IC50 [12]: 8.04 µM | GI50 [13]: 4.17 µM | IC50 [13]: 8.6 µM | GI50 (Homo sapiens, Ramos, hematological): 0.672 µM | GI50 [14]: 6.36 µM | IC50 [14]: 33.2 µM | GI50 [15]: 6.32 µM | IC50 [15]: 7.43 µM | GI50 [16]: 4.71 µM | IC50 [16]: 5.23 µM | GI50 [17]: 2.14 µM | IC50 [17]: 3.21 µM | GI50 [18]: 1.79 µM | IC50 [18]: 2.62 µM | GI50 [19]: 1.66 µM | IC50 [19]: 2.3 µM | GI50 [20]: 2.19 µM | IC50 [20]: 3.02 µM | GI50 [21]: 1.69 µM | IC50 [21]: 2.19 µM | GI50 (Homo sapiens, SK-N-AS, SKNAS, brain): 12.6 µM | GI50 [22]: 5.04 µM | IC50 [22]: 7.11 µM | GI50 [23]: 0.769 µM | IC50 [23]: 1.21 µM | GI50 (Homo sapiens, SNB-75, SNB75, brain): 15.5 µM | GI50 (Homo sapiens, SU-DHL10, SU-DHL-10, hematological): 8.42 µM | GI50 [24]: 0.623 µM | IC50 [24]: 0.761 µM | GI50 [25]: 5.38 µM | IC50 [25]: 6.25 µM | GI50 [26]: 4.63 µM | IC50 [26]: 5.1 µM | GI50 [27]: 1.02 µM | IC50 [27]: 1.09 µM | GI50 (Homo sapiens, U2OS, bone): 5.91 µM | IC50 (Homo sapiens, U2OS, bone): 8.4 µM | GI50 [28]: 10.5 µM | IC50 [28]: 11.3 µM | GI50 [29]: 2.23 µM | IC50 [29]: 2.76 µM | GI50 [30]: 0.981 µM | IC50 [30]: 18.6 µM | GI50 [31]: 0.796 µM | IC50 [31]: 0.639 µM | IC50 (J82, bladder): 28.9 µM | IC50 (JAR, placenta): 3.04 µM | IC50 (MT3, breast): 0.791 µM | GI50 (NCI-H358M, NCIH358M, lung): 1.61 µM | IC50 (NCI-H358M, NCIH358M, lung): 4.98 µM | GI50 (PBMC, 5637, bladder): 0.796 µM | GI50 (PBMC, CLS439, bladder): 6.87 µM | GI50 (PBMC, HS729, muscle): 7.42 µM | GI50 (PBMC, J82, bladder): 23.2 µM | GI50 (PBMC, JAR, placenta): 2.81 µM | GI50 (PBMC, MT3, breast): 0.638 µM | GI50 (PBMC, PC3, prostate): 8.37 µM | GI50 (PBMC, RD, muscle): 6.79 µM | GI50 (PBMC, T24, bladder): 3.86 µM | IC50 (PC3, prostate): 11.7 µM | IC50 (RD, muscle): 9.13 µM | GI50 (RD-ES, RDES, bone): 1.96 µM | IC50 (RD-ES, RDES, bone): 3.18 µM | IC50 (T24, bladder): 4 µM
